{"source": "ChEMBL document CHEMBL3860022", "about": "“Do cinnamylideneacetophenones have antioxidant properties and a protective effect toward the oxidation of phosphatidylcholines?” (Eur J Med Chem, 2016)", "format_in_all_cases": "functional", "key": {"[1]": {"test": "Antioxidant activity assessed as AAPH free radical scavenging activity by measuring trolox equivalent at 75 to 350 umol/L measured every min during 240 mins by fluorescein-based oxygen radical absorption capacity assay"}, "[2]": {"test": "Antioxidant activity assessed as inhibition of fenton reaction-mediated PLPC peroxidation by measuring ratio of oxidized PLPC/unmodified PLPC at 1 mg/ml incubated in dark for 1 hr to 7 days by mass spectroscopic analysis"}, "[3]": {"test": "Antioxidant activity assessed as inhibition of fenton reaction-mediated PLPC peroxidation by measuring ratio of dMPC/unmodified PLPC at 1 mg/ml incubated in dark for 1 hr to 7 days by mass spectroscopic analysis"}, "[4]": {"test": "Antioxidant activity assessed as DPPH free radical scavenging activity after 60 mins"}, "[5]": {"test": "Antioxidant activity assessed as AAPH free radical scavenging activity measured every min during 240 mins by fluorescein-based oxygen radical absorption capacity assay"}, "[6]": {"test": "Antioxidant activity assessed as AAPH free radical scavenging activity by measuring trolox equivalent at 12.5 to 100 umol/L measured every min during 240 mins by fluorescein-based oxygen radical absorption capacity assay"}, "[7]": {"test": "Antioxidant activity assessed as DPPH free radical scavenging activity by measuring trolox equivalent at 10 to 100 umol/L after 60 mins"}, "[8]": {"test": "Antioxidant activity assessed as AAPH free radical scavenging activity by measuring trolox equivalent at 1.5 to 35 umol/L measured every min during 240 mins by fluorescein-based oxygen radical absorption capacity assay"}, "[9]": {"test": "Antioxidant activity assessed as inhibition of fenton reaction-mediated PLPC peroxidation by measuring ratio of [dMPC + H]+/[PLPC + H]+ at 1 mg/ml incubated in dark for 1 hr to 7 days by mass spectroscopic analysis"}, "[10]": {"test": "Antioxidant activity assessed as inhibition of fenton reaction-mediated PLPC peroxidation at 1 mg/ml incubated in dark for 3 days by mass spectroscopic analysis"}, "[11]": {"test": "Antioxidant activity assessed as inhibition of fenton reaction-mediated PLPC peroxidation at 2 mg/ml incubated in dark for 1 hr by mass spectroscopic analysis"}, "[12]": {"test": "Antioxidant activity assessed as inhibition of fenton reaction-mediated PLPC peroxidation at 2 mg/ml incubated in dark for 3 days by mass spectroscopic analysis"}, "[13]": {"test": "Antioxidant activity assessed as inhibition of fenton reaction-mediated PLPC peroxidation by measuring ratio of [dMPC + H]+/[PLPC + H]+ at 2 mg/ml incubated in dark for 1 hr to 7 days by mass spectroscopic analysis"}, "[14]": {"test": "Antioxidant activity assessed as inhibition of fenton reaction-mediated PLPC peroxidation by measuring ratio of oxidized PLPC/unmodified PLPC at 2 mg/ml incubated in dark for 1 hr to 7 days by mass spectroscopic analysis"}, "[15]": {"test": "Antioxidant activity assessed as DPPH free radical scavenging activity by measuring trolox equivalent at 1.5 to 35 umol/L after 60 mins"}, "[16]": {"test": "Antioxidant activity assessed as AAPH free radical scavenging activity by measuring trolox equivalent at 0.5 to 10 umol/L measured every min during 240 mins by fluorescein-based oxygen radical absorption capacity assay"}, "[17]": {"test": "Antioxidant activity assessed as DPPH free radical scavenging activity by measuring trolox equivalent at 5 to 35 umol/L after 60 mins"}}, "note": "Activity calls are given as the source filed them. The calls are words filed in the database; no cut-off is given here."}
{"compound": "O=C(/C=C/c1ccccc1)c1ccccc1", "values": [{"measurement": "Activity", "setting": "[1]", "result": 0.049, "unit": "equiv"}]}
{"compound": "O=C(/C=C/C=C/c1ccccc1)c1ccccc1", "values": [{"measurement": "inhibition", "setting": "[2]", "result": "Active"}, {"measurement": "inhibition", "setting": "[3]", "result": "Active"}, {"measurement": "Activity", "setting": "[1]", "result": 0.06, "unit": "equiv"}]}
{"compound": "Cc1c(C)c2c(c(C)c1O)CCC(C)(C(=O)O)O2", "note": "(stereo not given) [TROLOX]", "values": [{"measurement": "IC50", "setting": "[4]", "result": 52.2, "unit": "µM"}, {"measurement": "IC50", "setting": "[5]", "result": 4.2, "unit": "µM"}]}
{"compound": "COc1ccc(C(=O)/C=C/C=C/c2ccccc2)cc1", "values": [{"measurement": "Activity", "setting": "[6]", "result": 0.12, "unit": "equiv"}]}
{"compound": "O=C(/C=C/C=C/c1ccc(O)cc1)c1ccccc1", "values": [{"measurement": "inhibition", "setting": "[2]", "result": "Active"}, {"measurement": "inhibition", "setting": "[3]", "result": "Active"}, {"measurement": "Activity", "setting": "[7]", "result": 0.29, "unit": "equiv"}, {"measurement": "IC50", "setting": "[4]", "result": 32.5, "unit": "µM"}, {"measurement": "Activity", "setting": "[8]", "result": 4.8, "unit": "equiv"}, {"measurement": "IC50", "setting": "[5]", "result": 1.2, "unit": "µM"}]}
{"compound": "COc1ccc(/C=C/C=C/C(=O)c2ccccc2)cc1", "values": [{"measurement": "inhibition", "setting": "[9]", "result": "Active"}, {"measurement": "inhibition", "setting": "[10]", "result": "Active"}, {"measurement": "inhibition", "setting": "[2]", "result": "Active"}, {"measurement": "Activity", "setting": "[6]", "result": 0.17, "unit": "equiv"}]}
{"compound": "O=C(/C=C/C=C/c1ccccc1)c1ccc(O)cc1", "values": [{"measurement": "Activity", "setting": "[8]", "result": 4.1, "unit": "equiv"}]}
{"compound": "COc1cc(/C=C/C(=O)CC(=O)/C=C/c2ccc(O)c(OC)c2)ccc1O", "note": "[CURCUMIN]", "values": [{"measurement": "inhibition", "setting": "[11]", "result": "Active"}, {"measurement": "inhibition", "setting": "[12]", "result": "Active"}, {"measurement": "inhibition", "setting": "[13]", "result": "Active"}, {"measurement": "inhibition", "setting": "[14]", "result": "Active"}, {"measurement": "Activity", "setting": "[15]", "result": 1.42, "unit": "equiv"}, {"measurement": "IC50", "setting": "[4]", "result": 32.5, "unit": "µM"}, {"measurement": "Activity", "setting": "[16]", "result": 3.9, "unit": "equiv"}, {"measurement": "IC50", "setting": "[5]", "result": 1.8, "unit": "µM"}]}
{"compound": "N#CC(C#N)C(/C=C/c1ccccc1)CC(=O)c1ccccc1", "note": "(stereo not given)", "values": [{"measurement": "Activity", "setting": "[17]", "result": 0.9, "unit": "equiv"}, {"measurement": "IC50", "setting": "[4]", "result": 74, "unit": "µM"}, {"measurement": "Activity", "setting": "[8]", "result": 2.7, "unit": "equiv"}, {"measurement": "IC50", "setting": "[5]", "result": 3.3, "unit": "µM"}]}
